Where two headings read alike, the source gives them in different places.
What was measured:
PI3Kα = molecular target: T1, PI3Kα (Homo sapiens, UniProt P42336); assay: PI3 Kinase HTRF assay, PI3Kα; type: biochemical; conditions: 10 μM PIP2, 10 μM ATP; 'Greater than 10 μM' and 'Greater than 1 μM to 10 μM'; read-out: PI3K α IC50
T1 construct: purchased Millipore Corporation 14-602-K
Description: (§1) A PI3-Kinase HTRF® assay kit (cat No. 33-016) purchased from Millipore Corporation was used to screen compounds provided herein. This assay used specific, high affinity binding of the GRP1 pleckstrin homology (PH) domain to PIP3, the product of a Class 1A or 1B PI3 Kinase acting on its physiological substrate PIP2. During the detection phase of the assay, a complex was generated between the GST-tagged PH domain and biotinylated short chain PIP3. The biotinylated PIP3 and the GST-tagged PH domain recruited fluorophores (Streptavidin-Allophycocyanin and Europium-labeled anti-GST respectively) to form the fluorescence resonance energy transfer (FRET) architecture, generating a stable time-resolved FRET signal. The FRET complex was disrupted in a competitive manner by non-biotinylated PIP3, a product formed in the PI3 Kinase assay.
(§2) PI3 Kinase α, β, γ and δ activity was assayed using the PI3 Kinase HTRF® assay kit (catalogue No. 33-016) purchased from Millipore Corporation. Purified recombinant PI3Kα (catalogue No. 14-602-K), PI3Kβ (catalogue No. 14-603-K), PI3Kγ (catalogue No. 14-558-K) and PI3Kδ (catalogue No. 14-604-K) were obtained from Millipore Corporation. Purified recombinant PI3K enzyme was used to catalyze the phosphorylation of phosphatidylinositol 4,5-bisphosphate (PIP2 at 10 μM) to phosphatidylinositol 3,4,5-trisphosphate (PIP3) in the presence of 10 μM ATP. The assay was carried out in 384-well format and detected using a Perkin Elmer EnVision Xcite Multilabel Reader. Emission ratios were converted into percent inhibitions and imported into GraphPad Prism software. The concentration necessary to achieve inhibition of enzyme activity by 50% (IC50) was calculated using concentrations ranging from 20 μM to 0.1 nM (12-point curve). IC50 values were determined using a nonlinear regression model available in GraphPad Prism 5. […]

Balb/c splenic B cells = assay: B cell activation and proliferation assay (Alamar Blue); type: cell-based; conditions: Mus musculus
Experimental: The ability of one or more subject compounds to inhibit B cell activation and proliferation is determined according to standard procedures known in the art. For example, an in vitro cellular proliferation assay is established that measures the metabolic activity of live cells. The assay is performed in a 96 well microtiter plate using Alamar Blue reduction. Balb/c splenic B cells are purified over a Ficoll-Paque™ PLUS gradient followed by magnetic cell separation using a MACS B cell Isolation Kit (Miletenyi). Cells are plated in 90 μl at 50,000 cells/well in B Cell Media (RPMI+10% FBS+Penn/Strep+50 μM bME+5 mM HEPES). A compound provided herein is diluted in B Cell Media and added in a 10 μl volume. Plates are incubated for 30 min at 37° C. and 5% CO2 (0.2% DMSO final concentration). A 50 μl B cell stimulation cocktail is then added containing either 10 μg/ml LPS or 5 μg/ml F(ab′)2 Donkey anti-mouse […] plus 2 ng/ml recombinant mouse IL4 in B Cell Media. Plates are incubated for 72 hours at 37° C. and 5% CO2. A volume of 15 μL of Alamar Blue reagent is added to each well and plates are incubated for 5 hours at 37° C. and 5% CO2. Alamar Blue fluoresce is read at 560Ex/590Em, and IC50 or EC50 values are calculated using GraphPad Prism 5.

PI3Kβ = assay: PI3 Kinase HTRF assay, PI3Kβ; type: biochemical, human; conditions: 10 μM PIP2, 10 μM ATP, read-out: PI3K β IC50
Description: as §1
as §2, with “Purified recombinant PI3Kα (catalogue No. 14-602-K), PI3Kβ (catalogue No. 14-603-K), PI3Kγ (catalogue No. 14-558-K) and PI3Kδ (catalogue No. 14-604-K) were obtained from Millipore Corporation.” left out, “The concentration necessary to achieve inhibition of enzyme activity by 50% (IC50) was calculated using concentrations ranging from 20 μM to 0.1 nM (12-point curve).” left out

[1] = 'Greater than 10 μM' and 'Greater than 1 μM to 10 μM'

Sequence of PI3Kβ (Q8BTI9 whole entry): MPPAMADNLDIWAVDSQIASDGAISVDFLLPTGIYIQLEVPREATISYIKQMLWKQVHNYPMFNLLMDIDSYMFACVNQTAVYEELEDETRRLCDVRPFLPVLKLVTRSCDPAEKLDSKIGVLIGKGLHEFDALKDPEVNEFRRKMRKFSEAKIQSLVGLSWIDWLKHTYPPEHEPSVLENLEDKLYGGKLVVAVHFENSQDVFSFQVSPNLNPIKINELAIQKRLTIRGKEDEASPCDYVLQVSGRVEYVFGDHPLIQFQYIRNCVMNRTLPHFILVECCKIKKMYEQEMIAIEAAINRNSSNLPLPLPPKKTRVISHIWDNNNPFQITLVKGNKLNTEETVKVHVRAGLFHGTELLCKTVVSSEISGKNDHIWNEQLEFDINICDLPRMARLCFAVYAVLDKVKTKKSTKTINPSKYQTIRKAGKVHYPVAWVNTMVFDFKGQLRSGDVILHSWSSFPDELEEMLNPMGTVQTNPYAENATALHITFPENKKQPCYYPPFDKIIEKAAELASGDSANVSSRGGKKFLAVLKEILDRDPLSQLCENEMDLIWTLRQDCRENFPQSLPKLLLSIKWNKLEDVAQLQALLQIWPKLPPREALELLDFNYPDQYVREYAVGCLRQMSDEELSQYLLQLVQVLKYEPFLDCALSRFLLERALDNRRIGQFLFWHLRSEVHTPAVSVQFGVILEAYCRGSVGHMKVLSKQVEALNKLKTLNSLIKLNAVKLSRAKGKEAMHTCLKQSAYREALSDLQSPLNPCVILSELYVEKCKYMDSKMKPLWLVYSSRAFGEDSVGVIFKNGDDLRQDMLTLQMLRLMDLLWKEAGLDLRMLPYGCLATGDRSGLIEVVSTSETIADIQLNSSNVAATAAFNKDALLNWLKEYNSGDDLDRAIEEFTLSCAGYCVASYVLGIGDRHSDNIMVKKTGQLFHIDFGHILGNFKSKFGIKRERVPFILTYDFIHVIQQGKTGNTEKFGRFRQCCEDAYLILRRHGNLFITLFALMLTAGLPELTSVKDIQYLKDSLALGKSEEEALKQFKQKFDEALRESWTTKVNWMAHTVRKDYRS
T1 sequence (P42336 whole entry): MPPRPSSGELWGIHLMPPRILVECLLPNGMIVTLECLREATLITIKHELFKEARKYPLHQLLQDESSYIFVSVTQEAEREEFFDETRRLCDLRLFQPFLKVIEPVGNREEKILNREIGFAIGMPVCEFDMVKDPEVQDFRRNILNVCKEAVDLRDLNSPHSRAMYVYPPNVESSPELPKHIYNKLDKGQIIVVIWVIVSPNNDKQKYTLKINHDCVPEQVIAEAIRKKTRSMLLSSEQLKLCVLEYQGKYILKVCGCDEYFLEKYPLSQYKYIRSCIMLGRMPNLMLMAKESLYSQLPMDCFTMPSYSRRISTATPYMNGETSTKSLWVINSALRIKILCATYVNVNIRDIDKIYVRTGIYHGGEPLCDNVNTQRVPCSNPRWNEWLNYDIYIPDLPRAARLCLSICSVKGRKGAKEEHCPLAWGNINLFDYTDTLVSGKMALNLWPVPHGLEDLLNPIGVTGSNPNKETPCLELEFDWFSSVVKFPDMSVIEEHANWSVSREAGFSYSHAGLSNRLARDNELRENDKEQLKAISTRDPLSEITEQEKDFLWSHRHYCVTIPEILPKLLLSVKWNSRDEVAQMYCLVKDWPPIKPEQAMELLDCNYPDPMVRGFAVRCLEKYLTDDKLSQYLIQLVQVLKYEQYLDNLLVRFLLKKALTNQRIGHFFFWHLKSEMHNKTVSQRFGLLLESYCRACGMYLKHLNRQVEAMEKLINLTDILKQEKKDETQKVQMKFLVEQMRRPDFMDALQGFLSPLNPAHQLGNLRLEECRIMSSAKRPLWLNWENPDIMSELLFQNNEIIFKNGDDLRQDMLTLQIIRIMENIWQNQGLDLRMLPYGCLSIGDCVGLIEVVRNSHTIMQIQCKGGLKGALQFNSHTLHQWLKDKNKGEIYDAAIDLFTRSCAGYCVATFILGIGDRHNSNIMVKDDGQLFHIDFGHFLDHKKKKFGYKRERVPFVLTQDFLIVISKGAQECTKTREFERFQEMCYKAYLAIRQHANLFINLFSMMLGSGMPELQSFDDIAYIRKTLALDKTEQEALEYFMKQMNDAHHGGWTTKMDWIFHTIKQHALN
T1 sequence (P27986 whole entry partner): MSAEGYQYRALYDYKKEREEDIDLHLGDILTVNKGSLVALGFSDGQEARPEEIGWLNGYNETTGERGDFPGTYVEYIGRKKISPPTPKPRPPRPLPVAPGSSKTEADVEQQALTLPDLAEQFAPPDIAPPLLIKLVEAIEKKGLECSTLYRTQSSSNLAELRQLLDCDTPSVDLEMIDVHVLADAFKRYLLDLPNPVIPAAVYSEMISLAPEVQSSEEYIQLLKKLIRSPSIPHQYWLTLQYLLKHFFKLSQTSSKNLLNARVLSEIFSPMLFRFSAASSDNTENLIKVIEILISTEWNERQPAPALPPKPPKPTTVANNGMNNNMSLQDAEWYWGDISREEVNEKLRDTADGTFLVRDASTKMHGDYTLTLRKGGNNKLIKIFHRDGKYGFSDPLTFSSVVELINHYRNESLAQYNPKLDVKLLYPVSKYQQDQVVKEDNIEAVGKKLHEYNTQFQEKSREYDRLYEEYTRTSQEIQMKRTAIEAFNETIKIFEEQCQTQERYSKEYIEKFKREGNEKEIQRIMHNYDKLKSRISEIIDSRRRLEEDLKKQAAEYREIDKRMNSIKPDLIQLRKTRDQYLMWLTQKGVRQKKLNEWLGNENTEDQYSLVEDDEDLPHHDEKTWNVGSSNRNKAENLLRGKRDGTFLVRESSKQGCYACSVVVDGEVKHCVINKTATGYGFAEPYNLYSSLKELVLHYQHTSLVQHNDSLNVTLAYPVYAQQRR

SMILES | IC50 (PI3Kα) [nM] | EC50 (Balb/c splenic B cells; 'Less than 100 nM') [nM] | IC50 (PI3Kβ; [1]) [nM] | IC50 (PI3Kβ; 'Less than 100 nM') [nM] | EC50 (Balb/c splenic B cells; 1 μM to 100 nM) [nM]
C[C@H](Nc1ncnc2cccnc12)c1cc2cccc(Cl)c2c(=O)n1-c1ccccc1 [Compound I-2] | 1000 to 10000 | < 100 |  |  | 
C[C@H](Nc1ncnc2cccnc12)c1cc2c(F)cccc2c(=O)n1-c1ccccc1 [Compound I-4] | 1000 to 10000 | < 100 | 1000 to 10000 |  | 
C[C@H](Nc1ncnc2cccnc12)c1cc2scc(Cl)c2c(=O)n1-c1ccccc1 [Compound I-29] | 1000 to 10000 |  |  |  | 
C[C@H](Nc1nc(N)nc2cccnc12)c1cc2cccc(-c3cnn(C)c3)c2c(=O)n1-c1ccccc1 [Compound I-36] | 1000 to 10000 |  | > 10000 |  | 
Cc1cc(-c2cccc3cc([C@H](C)Nc4ncnc5cccnc45)n(-c4ccccc4)c(=O)c23)cnc1C [Compound I-44] | 1000 to 10000 |  | > 10000 |  | 
Cc1nn(C)cc1-c1cccc2cc([C@H](C)Nc3ncnc4cccnc34)n(-c3ccccc3)c(=O)c12 [Compound I-47] | 1000 to 10000 |  | > 10000 |  | 
C[C@H](Nc1ccnc2cccnc12)c1cc2cccc(Cl)c2c(=O)n1-c1ccccc1 [Compound I-49] | 1000 to 10000 | < 100 |  |  | 
C[C@H](Nc1ccnc2ccnn12)c1cc2cccc(Cl)c2c(=O)n1-c1ccccc1 [II-2, (S)-8-chloro-2-phenyl-3-(1-(pyrazolo[1,5-a]pyrimidin-7-ylamino)ethyl)isoquinolin-1(2H)-one] | 1000 to 10000 | < 100 |  |  | 
C[C@H](Nc1ccnc2ccnn12)c1cc2cccc(Cl)c2c(=O)n1C1CC1 [II-7] | 1000 to 10000 | < 100 |  |  | 
C[C@H](Nc1ccnn2ccnc12)c1cc2cccc(Cl)c2c(=O)n1-c1ccccc1 [II-10] |  | < 100 |  | < 100 | 
C[C@H](Nc1ccnn2ccnc12)c1cc2cccc(Cl)c2c(=O)n1C1CC1 [II-11] | 1000 to 10000 | < 100 |  |  | 
C[C@H](Nc1ccnn2ccnc12)c1cc2cccc(Cl)c2c(=O)n1-c1cccc(F)c1 [II-14] | 1000 to 10000 | < 100 |  |  | 
C[C@H](Nc1ccnc2ccnn12)c1cc2scc(Cl)c2c(=O)n1-c1ccccc1 [II-20] | 1000 to 10000 |  |  |  | 
C[C@H](Nc1ccnn2ccnc12)c1cc2scc(Cl)c2c(=O)n1-c1ccccc1 [II-22] | 1000 to 10000 |  |  |  | 
C[C@H](Nc1ncnc2ccnn12)c1cc2cccc(Cl)c2c(=O)n1-c1ccccc1 [II-24] | 1000 to 10000 |  |  |  | 
C[C@H](Nc1ncnc2ccnn12)c1cc2cccc(Cl)c2c(=O)n1-c1cccc(F)c1 [II-30] |  | < 100 | 1000 to 10000 |  | 
COc1ncc(-c2cccc3cc([C@H](C)Nc4ccnn5ccnc45)n(-c4ccccc4)c(=O)c23)cn1 [II-48] | 1000 to 10000 |  | > 10000 |  | 
C[C@H](Nc1cc(N)nc2ccnn12)c1cc2cccc(Cl)c2c(=O)n1-c1ccccc1 [II-49] |  | < 100 | 1000 to 10000 |  | 
COc1ncc(-c2cccc3cc([C@H](C)Nc4cc(N)nc5ccnn45)n(-c4ccccc4)c(=O)c23)cn1 [II-50] |  | < 100 | > 10000 |  | 
C[C@H](Nc1ncnc2[nH]cnc12)c1cc2cccc(C(F)(F)F)c2c(=O)n1-c1ccccc1 [III-3] | 1000 to 10000 | < 100 |  |  | 
C[C@H](Nc1ncnc2cccnc12)c1cc2cccc(C(F)(F)F)c2c(=O)n1-c1ccccc1 [III-4] | 1000 to 10000 | < 100 |  |  | 
C[C@H](Nc1ncnc2scnc12)c1cc2cccc(C(F)(F)F)c2c(=O)n1-c1ccccc1 [III-5] |  | < 100 |  | < 100 | 
C[C@H](Nc1ccnc2ccnn12)c1cc2cccc(C(F)(F)F)c2c(=O)n1-c1ccccc1 [III-6] | 1000 to 10000 | < 100 |  |  | 

SMILES | IC50 (PI3Kα) [nM] | EC50 (Balb/c splenic B cells; 'Less than 100 nM') [nM] | IC50 (PI3Kβ; [1]) [nM] | IC50 (PI3Kβ; 'Less than 100 nM') [nM] | EC50 (Balb/c splenic B cells; 1 μM to 100 nM) [nM]
C[C@H](Nc1ccnn2ccnc12)c1cc2cccc(C(F)(F)F)c2c(=O)n1-c1ccccc1 [III-8, (S)-3-(1-(imidazo[1,2-b]pyridazin-8-ylamino)ethyl)-2-phenyl-8-(trifluoromethyl)isoquinolin-1(2H)-one] | 1000 to 10000 | < 100 |  |  | 
C[C@H](Nc1ncnc2scnc12)c1cc2cccc(C(F)(F)F)c2c(=O)n1-c1cccc(F)c1 [III-10] | 1000 to 10000 | < 100 |  |  | 
C[C@H](Nc1ccnc2ccnn12)c1cc2cccc(C(F)(F)F)c2c(=O)n1-c1cccc(F)c1 [III-11] |  | < 100 | 1000 to 10000 |  | 
C[C@H](Nc1nc(N)nc2[nH]cnc12)c1cc2cccc(C(F)(F)F)c2c(=O)n1-c1ccccc1 [III-17] |  | < 100 |  | < 100 | 
C[C@H](Nc1ncnc2[nH]cc(F)c12)c1cc2cccc(C(F)(F)F)c2c(=O)n1-c1ccccc1 [III-18] | 1000 to 10000 |  | 1000 to 10000 |  | 
C[C@H](Nc1ncnc2[nH]cc(C(N)=O)c12)c1cc2cccc(C(F)(F)F)c2c(=O)n1-c1ccccc1 [III-20] | 1000 to 10000 |  |  |  | 
C[C@H](Nc1nc(N)nc2cccnc12)c1cc2cccc(C(F)(F)F)c2c(=O)n1-c1ccccc1 [III-23] | 1000 to 10000 |  |  |  | 
C[C@H](Nc1nc(N)nc2scnc12)c1cc2cccc(C(F)(F)F)c2c(=O)n1-c1ccccc1 [III-25] | 1000 to 10000 |  | 1000 to 10000 |  | 
C[C@H](Nc1ncnn2ccnc12)c1cc2cccc(C(F)(F)F)c2c(=O)n1-c1ccccc1 [III-27] | 1000 to 10000 | < 100 |  |  | 
C[C@H](Nc1nc(N)nc2[nH]cnc12)c1cc2cccc(C(F)(F)F)c2c(=O)n1-c1cccc(F)c1 [III-30] | 1000 to 10000 | < 100 |  |  | 
C[C@H](Nc1ccnc2cccnc12)c1cc2cccc(C(F)(F)F)c2c(=O)n1-c1ccccc1 [III-31] |  | < 100 | 1000 to 10000 |  | 
C[C@H](Nc1ccnc2scnc12)c1cc2cccc(C(F)(F)F)c2c(=O)n1-c1ccccc1 [III-36, (S)-2-phenyl-3-(1-(thiazolo[5,4-b]pyridin-7-ylamino)ethyl)-8-(trifluoromethyl)isoquinolin-1(2H)-one] | 1000 to 10000 | < 100 |  |  | 
C[C@H](Nc1ncnc2scnc12)c1cc2scc(C(F)(F)F)c2c(=O)n1-c1ccccc1 [III-39] | 1000 to 10000 | < 100 |  |  | 
C[C@H](Nc1ncnc(N)c1C#N)c1cc2cccc(C(F)(F)F)c2c(=O)n1-c1ccccc1 [III-42] |  | < 100 | > 10000 |  | 
C[C@H](Nc1nc(N)ncc1C#N)c1cc2cccc(C(F)(F)F)c2c(=O)n1-c1ccccc1 [III-44] | 1000 to 10000 | < 100 |  |  | 
C[C@H](Nc1nc(N)ncc1C#N)c1cc2cccc(C(F)(F)F)c2c(=O)n1-c1cccc(F)c1 [III-45] | 1000 to 10000 | < 100 |  |  | 
C[C@H](Nc1nc(N)ncc1C(F)(F)F)c1cc2cccc(C(F)(F)F)c2c(=O)n1-c1cccc(F)c1 [III-46] |  |  | 1000 to 10000 |  | 100 to 1000
C[C@H](Nc1ncnc(N)c1C#N)c1cc2cccc(C(F)(F)F)c2c(=O)n1-c1cccc(F)c1 [III-49] | 1000 to 10000 | < 100 |  |  | 
C[C@H](Nc1ncnc2[nH]nc(C#N)c12)c1cc2cccc(Cl)c2c(=O)n1-c1ccccc1 [IV-11] |  | < 100 | 1000 to 10000 |  | 
C[C@H](Nc1ncnn2ccnc12)c1cc2cccc(Cl)c2c(=O)n1-c1ccccc1 [IV-12] | 1000 to 10000 |  |  |  | 
C[C@H](Nc1ncnn2ccnc12)c1cc2cccc(Cl)c2c(=O)n1-c1cccc(F)c1 [IV-13] | 1000 to 10000 |  | 1000 to 10000 |  | 
C[C@H](Nc1nc(N)nc2nccnc12)c1cc2cccc(Cl)c2c(=O)n1-c1ccccc1 [IV-22] |  | < 100 | 1000 to 10000 |  | 
